Data: US10278929B2, “Identification of stabilizers of multimeric proteins” (The Board of Trustees of the Leland Stanford Junior …, priority 2010, dated 2019)
Values joined by “and” are separate entries in the source; they are usually repeats but may differ in a detail not shown here. Equal entries are not always repeated. Where two headings read alike, the source gives them in different places.

Assays:
[1] = target: human TTR (wild type, from human plasma) (Homo sapiens (Human), UniProt P02766); test: Isothermal titration calorimetry (ITC) of ligands against TTR; assay type: binding; conditions: 5 versus 4
Description: Calorimetric titrations were carried out on a VP-ITC calorimeter (MicroCal, Northhampton, Mass.). […] Prior to each titration, all samples were degassed for 10 minutes. The initial injection of 3.0 μL was followed by 30 injections of 8.0 μL each (25° C.) to the point that TTR was fully saturated with ligand. Integration of the thermogram after subtraction of blanks yielded a binding isotherm that was analyzed with MicroCal Origin 5.0 software.

[2] = tested on: V1221 TTR cytotoxicity in AC16 cardiac cells; test: Inhibition of V1221 TTR-induced cytotoxicity, resazurin reduction; conditions: TTR and ligand 8 μM, 24 h
TTR [3] = target: T1, TTR (Homo sapiens (Human), UniProt P02766); test: Fluorescence polarization displacement of probe 5 from TTR; conditions: probe 5 100 nM, TTR 200 nM
[4] = target: wild type biotinylated TTR (Homo sapiens (Human), UniProt P02766); test: Surface plasmon resonance on immobilized biotinylated TTR; assay type: binding; conditions: SPR
Description: To an ice-cold solution of TTR (20 μM) in PBS was added EZ-Link Sulfo-NHS-LC-Biotin at a ratio of ˜2:1 (biotin:TTR) (minimal biotinylation) and the solution was incubated at room temperature. After 1 hour, un-reacted biotin was removed by passing the sample over a fast (FPLC) desalting column (Superdex™ 75) equilibrated with PBS.
SPR measurements were performed at 25° C. using a Biacore T100 (GE Healthcare) instrument equilibrated in 1% DMSO in PBS as a running buffer. After pretreatment of the streptavidin-coated chip (Sensor Chop SA, Biacore), ˜4000 RU biotinylated TTR was immobilized on one channel leaving the second flow channel as a blank (streptavidin alone) control. For binding measurements, HTS hits were diluted in running buffer (1% DMSO/PBS) and different dilution series were flowed over the chip at 50 μL/min ([…], 600 s wash). A zero concentration sample was used as a negative control. The kinetic data was fitted to a one-to-one binding model using Biacore T100 evaluation software.

WT TTR = WT TTR (Homo sapiens (Human), UniProt P02766); test: Acid-mediated fibril formation (turbidity) assay for TTR amyloidogenesis
[5] = tested on: WT TTR cytotoxicity in IMR-32 neuroblastoma cells; test: Inhibition of WT TTR-induced cytotoxicity, resazurin reduction; conditions: TTR and ligand 8 μM, 24 h
TTR [6] = target: T1, TTR; test: FP saturation binding experiment; conditions: FITC alone
Description: The binding of probe 5 for TTR was evaluated as follows. […] The samples were allowed to equilibrate by agitation for 20 min at room temperature. Fluorescence polarization (excitation λ 485 nm, emission λ 525 nm, Cutoff λ 515 nm) measurements were taken using SpectraMax M5 Microplate Reader (Molecular Devices). […] Nonspecific FP, produced by the free fluorescent probe 5 as well as by binding of 5 to the plate, was equal to 70±10 mP.

O=C(O)c1ccccc1Nc1cc(Cl)c(OCCOCCOCCNC(=S)Nc2ccc3c(c2)C(=O)OC32c3ccc(O)cc3Oc3cc(O)ccc32)c(Cl)c1 [Compound 5, 2-(3,5-dichloro-4-(2-(2-(2-(3-(3′,6′-dihydroxy-3-oxo-3H-spiro[isobenzofuran-1,9′-xanthene]-5-yl)thioureido)ethoxy)ethoxy)ethoxy)phenylamino)benzoic acid]
Fold decrease in binding affinity to TTR on attaching FITC to 4 [1]: ~3 fold

O=C(O)c1cccnc1Nc1cccc(C(F)(F)F)c1 [Niflumic acid, niflumic acid]
Prevention of V1221 TTR-induced cytotoxicity [2]: relatively poor inhibitor

O=C(O)c1ccc(-c2c(F)cccc2F)cc1 [Compound 1]
FP Kapp (apparent binding constant) (TTR [3]): 0.231 μM and 0.231 (R^2 = 0.997) μM

O=C(O)Cc1ccccc1Nc1c(Cl)cccc1Cl [Diclofenac]
target residence time, fold lower than 7 [4]: ~40 × | FP Kapp (apparent binding constant) (TTR [3]): 4.66 µM

Cc1n[nH]c(C)c1CCc1nc2c3ccccc3[nH]c(=O)n2n1 [Compound 15]
Inhibition of fibril formation at substoichiometric ligand (WT TTR; ligand 3.0 μM, TTR 3.6 μM, monitored over 5 days): > 75%

O=C(c1cc(O)c(O)c([N+](=O)[O-])c1)c1ccccc1F [Ro 41-0960]
Prevention of V1221 TTR-induced cytotoxicity [2]: completely prevented TTR-induced cytotoxicity | Inhibition of fibril formation at substoichiometric ligand (WT TTR): > 75% | Prevention of WT TTR-induced cytotoxicity [5]: completely prevented TTR-induced cytotoxicity

fluorescein isothiocyanate [FITC]
Change in FP signal upon addition of TTR (TTR [6]): no change in the FP signal

O=[N+]([O-])c1cc(O)c(O)c([N+](=O)[O-])c1 [3,5-dinitrocatechol]
Prevention of V1221 TTR-induced cytotoxicity [2]: poor inhibitor | Prevention of WT TTR-induced cytotoxicity [5]: poor inhibitor
